According to US9963442B2, “Pyridones as herbicides” (E I DU PONT DE NEMOURS AND COMPANY, priority 2014, dated 2018):

What was measured:
Type in all cases: in vivo
[1] = system: ragweed (common ragweed, Ambrosia elatior); test: Test A preemergence, directed soil spray; details: approx. 10 days
Source text: (§1) Seeds of plant species selected from barnyardgrass (Echinochloa crus-galli), kochia (Kochia scoparia), ragweed (common ragweed, Ambrosia elatior), Italian ryegrass (Lolium multiflorum), giant foxtail (Setaria faberii), and pigweed (Amaranthus retroflexus) were planted into a blend of loam soil and sand and treated preemergence with a directed soil spray using test chemicals formulated in a non-phytotoxic solvent mixture which included a surfactant. At the same time, plants selected from these weed species and also wheat (Triticum aestivum), corn (Zea mays), blackgrass (Alopecurus myosuroides), and galium (catchweed bedstraw, Galium aparine) were planted in pots containing the same blend of loam soil and sand and treated with postemergence applications of test chemicals formulated in the same manner. Plants ranged in height from 2 to 10 cm and were in the one- to two-leaf stage for the postemergence treatment. Treated plants and untreated controls were maintained in a greenhouse for approximately 10 days, after which time all treated plants were compared to untreated controls and visually evaluated for injury. Plant response ratings, summarized in Table A, are based on a 0 to 100 scale where 0 is no effect and 100 is complete control. A dash (-) response means no test result.

[2] = system: Italian ryegrass (Lolium multiflorum); test: Test A preemergence, directed soil spray; details: approx. 10 days
Source text: as §1

[3] = system: barnyardgrass (Echinochloa crus-galli); test: Test A preemergence, directed soil spray; details: approx. 10 days
Source text: as §1

[4] = system: giant foxtail (Setaria faberii); test: Test A preemergence, directed soil spray; details: approx. 10 days
Source text: as §1

[5] = system: kochia (Kochia scoparia); test: Test A preemergence, directed soil spray; details: approx. 10 days
Source text: as §1

[6] = system: pigweed (Amaranthus retroflexus); test: Test A preemergence, directed soil spray; details: approx. 10 days
Source text: as §1

[7] = system: ducksalad (Heteranthera limosa); test: Test B flooded paddy test; set-up: key: 0 = no effect, 100 = complete control; details: Flood, 250 g ai/ha applied to paddy water at 2-leaf stage; visually evaluated after 13 to 15 days; scale 0 (no effect) to 100 (complete control)
Protocol: (§2) Plant species in the flooded paddy test selected from rice (Oryza sativa), sedge, umbrella (small-flower umbrella sedge, Cyperus difformis), ducksalad (Heteranthera limosa), and barnyardgrass (Echinochloa crus-galli) were grown to the 2-leaf stage for testing. At time of treatment, test pots were flooded to 3 cm above the soil surface, treated by application of test compounds directly to the paddy water, and then maintained at that water depth for the duration of the test. Treated plants and controls were maintained in a greenhouse for 13 to 15 days, after which time all species were compared to controls and visually evaluated. Plant response ratings, summarized in Table B, are based on a scale of 0 to 100 where 0 is no effect and 100 is complete control. A dash (-) response means no test result.

[8] = system: barnyardgrass (Echinochloa crus-galli); test: Test B flooded paddy test; set-up: key: 0 = no effect, 100 = complete control; details: Flood, 250 g ai/ha applied to paddy water at 2-leaf stage; visually evaluated after 13 to 15 days; scale 0 (no effect) to 100 (complete control)
Protocol: as §2

[9] = system: rice (Oryza sativa); test: Test B flooded paddy test; set-up: key: 0 = no effect, 100 = complete control; details: Flood, 250 g ai/ha applied to paddy water at 2-leaf stage; visually evaluated after 13 to 15 days; scale 0 (no effect) to 100 (complete control)
Protocol: as §2

[10] = system: sedge, umbrella (small-flower umbrella sedge, Cyperus difformis); test: Test B flooded paddy test; set-up: key: 0 = no effect, 100 = complete control; details: Flood, 250 g ai/ha applied to paddy water at 2-leaf stage; visually evaluated after 13 to 15 days; scale 0 (no effect) to 100 (complete control)
Protocol: as §2

[11] = system: lambsquarters (Chenopodium album); test: Test C preemergence; details: scale 0 to 100, 0 is no effect, 100 is complete control
Source text: (§3) Seeds of plant species selected from blackgrass (Alopecurus myosuroides), Italian ryegrass (Lolium multiflorum), winter wheat (Triticum aestivum), galium (catchweed bedstraw, Galium aparine), corn (Zea mays), large (Lg) crabgrass (Digitaria sanguinalis), giant foxtail (Setaria faberii), johnsongrass (Sorghum halepense), lambsquarters (Chenopodium album), morningglory (Ipomoea coccinea), yellow nutsedge (Cyperus esculentus), pigweed (Amaranthus retroflexus), ragweed (common ragweed, Ambrosia elatior), soybean (Glycine max), barnyardgrass (Echinochloa crus-galli), oilseed rape (Brassica napus), waterhemp (common waterhemp, Amaranthus rudis), and velvetleaf (Abutilon theophrasti) were planted into a blend of loam soil and sand and treated preemergence with test chemicals formulated in a non-phytotoxic solvent mixture which included a surfactant. At the same time, plants selected from these crop and weed species and also chickweed (common chickweed, Stellaria media), kochia (Kochia scoparia), and wild oat (Avena fatua), were planted in pots containing Sunshine Redi-Earth® planting medium comprising spaghnum peat moss, vermiculite, starter nutrients and dolomitic limestone and treated with postemergence applications of test chemicals formulated in the same manner. Plants ranged in height from 2 to 18 cm (1- to 4-leaf stage) for postemergence treatments. Treated plants and controls were maintained in a greenhouse for 13 to 15 days, after which time all species were compared to controls and visually evaluated. Plant response ratings, summarized in Table C, are based on a scale of 0 to 100 where 0 is no effect and 100 is complete control. A dash (-) response means no test result.

[12] = system: blackgrass (Alopecurus myosuroides); test: Test C preemergence; details: scale 0 to 100, 0 is no effect, 100 is complete control
Source text: as §3

[13] = system: large (Lg) crabgrass (Digitaria sanguinalis); test: Test C preemergence; details: scale 0 to 100, 0 is no effect, 100 is complete control
Source text: as §3

[14] = system: giant foxtail (Setaria faberii); test: Test C preemergence; details: scale 0 to 100, 0 is no effect, 100 is complete control
Source text: as §3

[15] = system: pigweed (Amaranthus retroflexus); test: Test C preemergence; details: scale 0 to 100, 0 is no effect, 100 is complete control
Source text: as §3

[16] = system: johnsongrass (Sorghum halepense); test: Test C preemergence; details: scale 0 to 100, 0 is no effect, 100 is complete control
Source text: as §3

[17] = system: galium (catchweed bedstraw, Galium aparine); test: Test C preemergence; details: scale 0 to 100, 0 is no effect, 100 is complete control
Source text: as §3

[18] = system: soybean (Glycine max); test: Test C preemergence; details: scale 0 to 100, 0 is no effect, 100 is complete control
Source text: as §3

[19] = system: waterhemp (common waterhemp, Amaranthus rudis); test: Test C preemergence; details: scale 0 to 100, 0 is no effect, 100 is complete control
Source text: as §3

O=c1cccc(Oc2ncc(Cl)cn2)n1-c1ncc(Cl)cn1 [Compound 6]
Plant response rating (0 to 100 scale, 0 no effect, 100 complete control), Ragweed ([1]; 31 g ai/ha): 70
Plant response rating (0 to 100 scale, 0 no effect, 100 complete control), Ragweed ([1]; 125 g ai/ha): 80
Plant response rating (0 to 100 scale, 0 no effect, 100 complete control), Ryegrass, Italian ([2]; 31 g ai/ha): 0
Plant response rating (0 to 100 scale, 0 no effect, 100 complete control), Ryegrass, Italian ([2]; 125 g ai/ha): 10
Plant response rating (0 to 100 scale, 0 no effect, 100 complete control), Barnyardgrass ([3]; 31 g ai/ha): 20
Plant response rating (0 to 100 scale, 0 no effect, 100 complete control), Barnyardgrass ([3]; 125 g ai/ha): 70
Plant response rating (0 to 100 scale, 0 no effect, 100 complete control), Foxtail, Giant ([4]; 31 g ai/ha): 60
Plant response rating (0 to 100 scale, 0 no effect, 100 complete control), Foxtail, Giant ([4]; 125 g ai/ha): 100
Plant response rating (0 to 100 scale, 0 no effect, 100 complete control), Kochia ([5]; 31 g ai/ha): 60
Plant response rating (0 to 100 scale, 0 no effect, 100 complete control), Kochia ([5]; 125 g ai/ha): 100
Plant response rating (0 to 100 scale, 0 no effect, 100 complete control), Pigweed ([6]; 31 g ai/ha): 80
Plant response rating (0 to 100 scale, 0 no effect, 100 complete control), Pigweed ([6]; 125 g ai/ha): 100
Plant response rating, Ducksalad [7]: 80
Plant response rating, Barnyardgrass [8]: 0
Plant response rating, Rice [9]: 0
Plant response rating, Sedge, Umbrella [10]: 85
Plant response rating, Lambsquarters ([11]; 16 g ai/ha): 40
Plant response rating, Lambsquarters ([11]; 31 g ai/ha): 30
Plant response rating, Lambsquarters ([11]; 62 g ai/ha): 65
Plant response rating, Lambsquarters ([11]; 125 g ai/ha): 85
Plant response rating, Blackgrass ([12]; 16 g ai/ha): 0
Plant response rating, Blackgrass ([12]; 31 g ai/ha): 0
Plant response rating, Blackgrass ([12]; 62 g ai/ha): 5
Plant response rating, Blackgrass ([12]; 125 g ai/ha): 5
Plant response rating, Crabgrass, Large ([13]; 16 g ai/ha): 5
Plant response rating, Crabgrass, Large ([13]; 31 g ai/ha): 50
Plant response rating, Crabgrass, Large ([13]; 62 g ai/ha): 90
Plant response rating, Crabgrass, Large ([13]; 125 g ai/ha): 100
Plant response rating, Foxtail, Giant ([14]; 16 g ai/ha): 0
Plant response rating, Foxtail, Giant ([14]; 31 g ai/ha): 5
Plant response rating, Foxtail, Giant ([14]; 62 g ai/ha): 70
Plant response rating, Foxtail, Giant ([14]; 125 g ai/ha): 100
Plant response rating, Pigweed ([15]; 16 g ai/ha): 55
Plant response rating, Pigweed ([15]; 31 g ai/ha): 75
Plant response rating, Pigweed ([15]; 62 g ai/ha): 90
Plant response rating, Pigweed ([15]; 125 g ai/ha): 100
Plant response rating, Johnsongrass ([16]; 16 g ai/ha): 0
Plant response rating, Johnsongrass ([16]; 31 g ai/ha): 0
Plant response rating, Johnsongrass ([16]; 62 g ai/ha): 5
Plant response rating, Johnsongrass ([16]; 125 g ai/ha): 10
Plant response rating, Galium ([17]; 16 g ai/ha): 80
Plant response rating, Galium ([17]; 31 g ai/ha): 90
Plant response rating, Galium ([17]; 62 g ai/ha): 90
Plant response rating, Galium ([17]; 125 g ai/ha): 90
Plant response rating, Soybean ([18]; 16 g ai/ha): 10
Plant response rating, Soybean ([18]; 31 g ai/ha): 20
Plant response rating, Soybean ([18]; 125 g ai/ha): 75
Plant response rating, Waterhemp ([19]; 16 g ai/ha): 75
Plant response rating, Waterhemp ([19]; 31 g ai/ha): 90
Plant response rating, Waterhemp ([19]; 62 g ai/ha): 100
Plant response rating, Waterhemp ([19]; 125 g ai/ha): 100
